# Reference: article PMC8617031, “Development of a BCL-xL and BCL-2 dual degrader with improved anti-leukemic activity,” (Nature Communications, 2021)
# Values joined by “and” are separate entries in the source; they are usually repeats but may differ in a detail not shown here. Identical values can stand only once. Like-named read-outs stand apart in the source and are kept apart here.
# Assays:
# His-tagged BCL-xL = biological target: T1, His-tagged BCL-xL (Homo sapiens, UniProt Q07817); assay: AlphaScreen competitive binary binding, BCL-xL (biotin-BAD peptide)
# T1 construct: purchased Sigma-Aldrich SRP0187
# Description: The reagents were diluted in a buffer containing 250 mM HEPES pH 7.5, 1 M NaCl, 1% BSA, and 0.05% Tween-80. His-tagged BCL-xL (0.5 nM, Cat. No. SRP0187, Sigma-Aldrich) or BCL-2 (1 nM, Cat. No. SRP0186, Sigma-Aldrich) were incubated with serial diluted 753a or 753b and 2 nM biotin-tagged BAD (biotin-[…] amino-terminal, AnaSpec, for BCL-xL) or 10 nM BIM peptides (biotin-[…] N-terminal, AnaSpec, for BCL-2) to a final volume of 40 µl in a 96-well PCR plate. […] After incubation for 2 h, 5 µl 6× His-acceptor beads (Cat. No. AL128M, PerkinElmer) were added to each well at 20 µg/ml final concentration and incubated for 1 h. Then 5 µl streptavidin-donor beads were added (Cat. No. 6760002, PerkinElmer) to each well at 20 µg/ml final concentration and incubated for 45 min. At the end of the incubation period, 17 µl of each sample was transferred in adjacent wells of 384-well proxy plate (Cat. No. 6008280, PerkinElmer). The plate was scanned using the Alpha program on Biotek’s Synergy Neo2 multimode plate reader. The inhibition constant (Ki) was calculated using the non-linear regression, one site, competitive binding, Fit Ki function on GraphPad Prism 9 software, based on experimentally determined dissociation constant (Kd) for each protein–peptide pair.
# 293T cells = assay: Viability (MTS) of 293T cells; format: cell-based, human; settings: normalised to own plate; for 293T cell viability, MTS absorbance 490 as percent of untreated control, mean of three wells: mean of 3 wells
# Description: Suspension cells were treated 30 min after seeding, whereas adherent cells were allowed to adhere overnight and were then treated. Compound treatments were prepared in complete cell culture medium and 100 µl of 2× treatment-containing medium were added to each well. Complete cell culture medium without treatment was added in control wells, and wells containing medium without cells served as background. The outer wells of the 96-well plate were not used for treatment and were filled with 250 µl of PBS to reduce evaporation of medium from inner wells. Each compound and/or combination was tested at nine different concentrations with three replicates. The cell viability was measured after 72 h by tetrazolium-based MTS assay. MTS reagent (2 mg ml^–1 stock; cat. no. G1111, Promega) was freshly supplemented with phenazine methosulfate (PMS, 0.92 mg ml^–1 stock, cat. no. P9625, Sigma-Aldrich) in 20:1 ratio, and 20 µl of this mixture was added to each control and treatment well. The cells were incubated for 4 h at 37 °C and 5% CO2, and then the absorbance was recorded at 490 nm using Biotek’s Synergy Neo2 multimode plate reader (Biotek). The average absorbance value of background wells was subtracted from absorbance value of each control and treatment well, and percent cell viability ((At/A0) × 100)) was determined in each treatment well, where At is the absorbance value of the treatment well and A0 is the average absorbance value of control wells after background subtraction. The data were expressed as average percentage cell viability and fitted in non-linear regression curves using GraphPad Prism 7 (GraphPad Software, La Jolla, CA, USA).
# T1 sequence (Q07817 whole entry): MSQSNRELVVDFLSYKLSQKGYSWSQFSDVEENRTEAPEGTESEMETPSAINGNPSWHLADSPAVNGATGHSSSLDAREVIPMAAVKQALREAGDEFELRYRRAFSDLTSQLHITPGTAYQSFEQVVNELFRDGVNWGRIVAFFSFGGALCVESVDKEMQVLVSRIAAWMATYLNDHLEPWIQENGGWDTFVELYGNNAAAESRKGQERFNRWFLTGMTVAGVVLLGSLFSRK
structure (smiles),measurement,setting,value
"CC1(C)CCC(c2ccc(Cl)cc2)=C(CN2CCN(c3ccc(C(=O)NS(=O)(=O)c4ccc(N[C@H](CCN5CCOCC5)CSc5ccccc5)c(S(=O)(=O)C(F)(F)F)c4)cc3)CC2)C1 [ABT263, navitoclax]",inhibition at 0.078125 µM,"His-tagged BCL-xL; BCL-xL Rep-1, 0.078125 uM, read-out: Alpha signal normalised to Maximum/Minimum (inhibition)",90.1%
same,Alpha signal normalised to Maximum/Minimum (inhibition),"His-tagged BCL-xL; BCL-xL Rep-1, 0.3125 uM, 0.3125 µM",98.7717
same,inhibition at 0.3125 µM,"His-tagged BCL-xL; BCL-xL Rep-1, 0.3125 uM, read-out: Alpha signal normalised to Maximum/Minimum (inhibition)",97.2%
same,Alpha signal normalised to Maximum/Minimum (inhibition),"His-tagged BCL-xL; BCL-xL Rep-1, 1.25 uM, 1.25 µM",99.2115
same,inhibition at 1.25 µM,"His-tagged BCL-xL; BCL-xL Rep-1, 1.25 uM, read-out: Alpha signal normalised to Maximum/Minimum (inhibition)",98.7%
same,Alpha signal normalised to Maximum/Minimum (inhibition),"His-tagged BCL-xL; BCL-xL Rep-1, 5 uM, 5 µM",98.674
same,inhibition at 5 µM,"His-tagged BCL-xL; BCL-xL Rep-1, 5 uM, read-out: Alpha signal normalised to Maximum/Minimum (inhibition)",99.7%
same,Alpha signal (raw counts),"His-tagged BCL-xL; BCL-xL Rep-1, plate row B, 5 uM",24284 and 38579
same,Alpha signal (raw counts),"His-tagged BCL-xL; BCL-xL Rep-1, plate row C, 1.25 uM",38335 and 30879
same,Alpha signal (raw counts),"His-tagged BCL-xL; BCL-xL Rep-1, plate row D, 0.3125 uM",59200 and 37180
same,Alpha signal (raw counts),"His-tagged BCL-xL; BCL-xL Rep-1, plate row E, 0.078125 uM",160796 and 165155
same,Alpha signal (raw counts),"His-tagged BCL-xL; BCL-xL Rep-1, plate row F, 0.0195312 uM",437862 and 392628
same,Alpha signal (raw counts),"His-tagged BCL-xL; BCL-xL Rep-1, plate row G, 0.00488281 uM",787377 and 721620
same,Alpha signal (raw counts),"His-tagged BCL-xL; BCL-xL Rep-1, plate row H, 0.0012207 uM",1053850 and 1038882
same,Alpha signal (raw counts),"His-tagged BCL-xL; BCL-xL Rep-1, plate row I, 0.000305176 uM",993971 and 1044138
same,Alpha signal (raw counts),"His-tagged BCL-xL; BCL-xL Rep-1, plate row J, 7.62939e-5 uM",1100587 and 1144199
same,Alpha signal (raw counts),"His-tagged BCL-xL; BCL-xL Rep-1, plate row K, 1.90735e-5 uM",1236998 and 1302696
same,Alpha signal (raw counts),"His-tagged BCL-xL; BCL-xL Rep-2, 7.62939e-5 uM",1461205 and 1360749
same,Alpha signal normalised to Maximum/Minimum (inhibition),"His-tagged BCL-xL; BCL-xL Rep-2, 0.000305176 uM, 0.000305176 µM",14.6957
same,inhibition at 0.000305176 µM,"His-tagged BCL-xL; BCL-xL Rep-2, 0.000305176 uM, read-out: Alpha signal normalised to Maximum/Minimum (inhibition)",13%
same,Alpha signal normalised to Maximum/Minimum (inhibition),"His-tagged BCL-xL; BCL-xL Rep-2, 0.0012207 uM, 0.0012207 µM",16.3472
same,inhibition at 0.0012207 µM,"His-tagged BCL-xL; BCL-xL Rep-2, 0.0012207 uM, read-out: Alpha signal normalised to Maximum/Minimum (inhibition)",24%
same,Alpha signal normalised to Maximum/Minimum (inhibition),"His-tagged BCL-xL; BCL-xL Rep-2, 0.00488281 uM, 0.00488281 µM",45.5298
same,inhibition at 0.00488281 µM,"His-tagged BCL-xL; BCL-xL Rep-2, 0.00488281 uM, read-out: Alpha signal normalised to Maximum/Minimum (inhibition)",46%
same,Alpha signal normalised to Maximum/Minimum (inhibition),"His-tagged BCL-xL; BCL-xL Rep-2, 0.0195312 uM, 0.0195312 µM",63.2992
same,inhibition at 0.0195312 µM,"His-tagged BCL-xL; BCL-xL Rep-2, 0.0195312 uM, read-out: Alpha signal normalised to Maximum/Minimum (inhibition)",60.9%
same,Alpha signal normalised to Maximum/Minimum (inhibition),"His-tagged BCL-xL; BCL-xL Rep-2, 0.078125 uM, 0.078125 µM",91.4929
same,inhibition at 0.078125 µM,"His-tagged BCL-xL; BCL-xL Rep-2, 0.078125 uM, read-out: Alpha signal normalised to Maximum/Minimum (inhibition)",89.7%
same,Alpha signal normalised to Maximum/Minimum (inhibition),"His-tagged BCL-xL; BCL-xL Rep-2, 0.3125 uM, 0.3125 µM",98.2227
same,inhibition at 0.3125 µM,"His-tagged BCL-xL; BCL-xL Rep-2, 0.3125 uM, read-out: Alpha signal normalised to Maximum/Minimum (inhibition)",97.4%
same,Alpha signal normalised to Maximum/Minimum (inhibition),"His-tagged BCL-xL; BCL-xL Rep-2, 1.25 uM, 1.25 µM",99.5826
same,inhibition at 1.25 µM,"His-tagged BCL-xL; BCL-xL Rep-2, 1.25 uM, read-out: Alpha signal normalised to Maximum/Minimum (inhibition)",100%
same,Alpha signal normalised to Maximum/Minimum (inhibition),"His-tagged BCL-xL; BCL-xL Rep-2, 5 uM, 5 µM",99.8318
same,inhibition at 5 µM,"His-tagged BCL-xL; BCL-xL Rep-2, 5 uM, read-out: Alpha signal normalised to Maximum/Minimum (inhibition)",99%
same,Alpha signal (raw counts),"His-tagged BCL-xL; BCL-xL Rep-2, plate row B, 5 uM",36635 and 25525
same,Alpha signal (raw counts),"His-tagged BCL-xL; BCL-xL Rep-2, plate row C, 1.25 uM",22256 and 28959
same,Alpha signal (raw counts),"His-tagged BCL-xL; BCL-xL Rep-2, plate row D, 0.3125 uM",58501 and 47695
same,Alpha signal (raw counts),"His-tagged BCL-xL; BCL-xL Rep-2, plate row E, 0.078125 uM",165323 and 140416
same,Alpha signal (raw counts),"His-tagged BCL-xL; BCL-xL Rep-2, plate row F, 0.0195312 uM",561843 and 528857
same,Alpha signal (raw counts),"His-tagged BCL-xL; BCL-xL Rep-2, plate row G, 0.00488281 uM",767546 and 773677
same,Alpha signal (raw counts),"His-tagged BCL-xL; BCL-xL Rep-2, plate row H, 0.0012207 uM",1070160 and 1175743
same,Alpha signal (raw counts),"His-tagged BCL-xL; BCL-xL Rep-2, plate row I, 0.000305176 uM",1221423 and 1198497
same,Alpha signal (raw counts),"His-tagged BCL-xL; BCL-xL Rep-2, plate row K, 1.90735e-5 uM",1346687 and 1389856
same,"293T cell viability, MTS absorbance 490 as percent of untreated control, mean of three wells",293T cells; 0.00137174 uM,97.7794
same,"293T cell viability, MTS absorbance 490 as percent of untreated control, single replicate well",293T cells; 0.00137174 uM,98.6099 and 98.5015
same,"293T cell viability, MTS absorbance 490 as percent of untreated control, mean of three wells",293T cells; 0.00411523 uM,103.484
same,"293T cell viability, MTS absorbance 490 as percent of untreated control, single replicate well",293T cells; 0.00411523 uM,107.709 and 108.359
same,"293T cell viability, MTS absorbance 490 as percent of untreated control, single replicate well",293T cells; 0.037037 uM,116.375 and 110.092
same,"293T cell viability, MTS absorbance 490 as percent of untreated control, single replicate well",293T cells; 0.111111 uM,96.1184 and 122.874 and 120.166
same,"293T cell viability, MTS absorbance 490 as percent of untreated control, single replicate well",293T cells; 0.333333 uM,101.968 and 111.934
same,"293T cell viability, MTS absorbance 490 as percent of untreated control, single replicate well",293T cells; 1 uM,97.2017 and 104.893
same,"293T cell viability, MTS absorbance 490 as percent of untreated control, single replicate well",293T cells; 3 uM,60.8052 and 61.6718
